Measured values taken from patent US7871635B2, “Use of compound that inactivates protein kinase A in a composition containing a cosmetically acceptable medium for lightening the skin” (Societe d'Exploitation de Produits pour les Industries …, priority 2002, dated 2011).

System: B16/F1 melanocyte cultures
Assay: Extracellular melanin content in B16/F1 melanocyte cultures
Type: cell-based, mouse
Details: 72 hours; for Extracellular melanin: control 43 ± 11 μg/ml
Description: Mouse melanocytes of the B16/F1 line are inoculated in 96-well culture plates at a density of 1500 cells/well. […] The cells are used at 60% of confluence, i.e. 4 days after inoculation. The MCM medium has the following composition: […] N-Undecylenoylphenylalanine is diluted to 4 mg/ml in decinormal aqueous sodium hydroxide solution. It is tested at 40 μg/ml in the MCM medium. Sodium hydroxide has no effect on the parameters analyzed. […] Given its toxicity, it is not tested at 40 μg/ml. […] Control cultures are incubated, in the absence of product, in the MCM medium. These control cultures are prepared on each culture plate. Each test is performed six times. After incubation for 72 hours, the incubation media of the cells (n=6) are taken up and stored at -80° C. until the time of evaluation of the effects. The extracellular melanin is quantified by spectrophotometry at 450 nm. A melanin calibration range is prepared in parallel. The results are expressed as μg/ml of extracellular […] a percentage of inhibition relative to the control group.

[1] = Mus musculus, B16-F1, at 40 μg/ml, read-out: Inhibition of extracellular melanin production

## OC[C@H]1O[C@@H](Oc2ccc(O)cc2)[C@H](O)[C@@H](O)[C@@H]1O [Arbutin, arbutin]
[1]
  inhibition at 40 µg/mL: 47%
At 40 μg/ml
  Extracellular melanin: 23 ± 6 µg/mL

## Oc1ccc(O)cc1 [Hydroquinone, hydroquinone]
Mus musculus, B16-F1, at 5 μg/ml, read-out: Inhibition of extracellular melanin production
  inhibition at 5 µg/mL: 85%
At 5 μg/ml
  Extracellular melanin: 7 ± 1 µg/mL

## O=c1cc(CO)occ1O [Kojic acid, kojic acid]
[1]
  inhibition at 40 µg/mL: 70%
At 40 μg/ml
  Extracellular melanin: 13 ± 2 µg/mL

## C=CCCCCCCCCC(=O)NC(Cc1ccccc1)C(=O)O (centres unmarked) [N-Undecylenoylphenylalanine, N-(ω-undecylenoyl)phenylalanine]
[1]
  inhibition at 40 µg/mL: 72%
At 40 μg/ml
  Extracellular melanin: 12 ± 1 µg/mL
